Test results: ChEMBL document CHEMBL1154198, “Chemical genetics of Plasmodium falciparum” (Nature, 2010)

Key:
Plasmodium falciparum [1] = assay: ST_JUDE: Plasmodium falciparum 3D7 EC50 (uM) as measured by SYBR green dye; assay type: functional, organism-based
Plasmodium falciparum [2] = assay: ST_JUDE: Plasmodium falciparum K1 EC50 (uM) as measured by SYBR green dye; assay type: functional, organism-based

Compound | EC50 (Plasmodium falciparum [1]) [µM] | EC50 (Plasmodium falciparum [2]) [µM]
CCSc1ccc2ccccc2[n+]1CC | 0.416 | 0.259
COc1cccc2c(C)nc(N=C(N)N)nc12 | > 15 | > 15
Cc1ccc(CN2c3ccccc3C(O)=C(/C=N/c3ccc4c(c3)N3CCN=C3S4)S2(=O)=O)cc1 | 2.18 | > 15
COc1ccc(C(NC(=O)c2cccnc2)c2cc(Cl)c3cccnc3c2O)cc1OC (stereo unspecified) | > 15 | 2.66
COc1ccc(Nc2nc(NCc3ccccc3)c3ccccc3n2)cc1 | 1.31 | 7.39
Cc1cccc(/C=C2/Sc3ccc(C(=O)NCCN4CCN(c5cc(Cl)ccc5C)CC4)cc3N(C)C2=O)c1 | 0.985 | 0.965
Cc1ccc(Nc2nc(NCCO)c3ccccc3n2)cc1C | 0.843 | 2.27
COc1ccc(CCNC(=S)Nc2ccccc2Cl)cc1OC | 1.29 | 1.36
Cc1cc(Nc2ccc(C)c(F)c2)n2nc(C)nc2n1 | 1.29 | 3.09
COc1ccc2cc(C(=O)C3CCCN(C4CCN(C(C)C)CC4)C3)ccc2c1 (stereo unspecified) | 7.92 | > 15
COc1cc(/C=C(\C#N)c2nc(-c3ccc(Cl)cc3)cs2)cc([N+](=O)[O-])c1O | > 15 | > 15
CN(C)CCn1c(=N)n(CC(O)c2ccc(Cl)c(Cl)c2)c2ccccc21 (stereo unspecified) | 0.638 | 3.01
CCOc1ccccc1N1CCN(Cc2cc(Br)cc(Br)c2O)CC1 | 8.24 | 3.78
CCOCCCn1c(=N)c(C(=O)NCc2cccnc2)cc2c(=O)n3cccc(C)c3nc21 | > 15 | > 15
CC1=C(C)CC2C(=O)C3=C(C(=O)C2C1)C1c2ccccc2C3c2ccccc21 (stereo unspecified) | 3.15 | 1.62
CCCc1cc(O)nc(-n2nc(C)cc2NC(=O)c2cc(Cl)ccc2Cl)n1 | > 15 | > 15
Cc1cccn2c(=O)nc(SCc3cccc(F)c3)nc12 | > 15 | 10.1
COc1cccc(C2Nc3ccc(C(C)=O)cc3C3C=CCC32)c1OC (stereo unspecified) | 3.42 | 8.22
CCCC(=O)NC(c1ccc(Cl)cc1)c1ccc2cccnc2c1O (stereo unspecified) | 1.88 | 2.3
COc1ccc(NC2=C/C(=N/S(=O)(=O)c3ccc(C(C)C)cc3)c3ccccc3C2=O)cc1 | 0.499 | 0.458
COc1ccc(CCNC(=S)Nc2ccccc2C)cc1OC | 3.75 | 3.96

Compound | EC50 (Plasmodium falciparum [1]) [µM] | EC50 (Plasmodium falciparum [2]) [µM]
CCOc1cc(Br)c(C2NC(=O)NC(c3ccccc3)=C2C(C)=O)cc1OCC (stereo unspecified) | 1.51 | > 15
C/C(Cl)=C\C[N+]1(C/C=C(\C)Cl)CCCCC1 | > 15 | > 15
COc1cc(CNCCc2ccc(Cl)cc2)cc(OC)c1O | 6.89 | > 15
CCCN1CC=C2C(C#N)=C(N)C(C#N)(C#N)C(c3ccccc3C(F)(F)F)C2C1 (stereo unspecified) | 1.12 | 0.479
CCc1ccc(C(O)(CCC(C)C)C(CN2CCOCC2)c2ccccc2)cc1 (stereo unspecified) | 2.45 | 1.99
COc1ccc(C2CC(=O)C3=C(C2)NC(=O)CC3c2ccc(O)cc2)cc1OC (stereo unspecified) | 1.66 | 0.977
Cc1ccc2nc(Nc3nc(O)c4ccccc4n3)nc(C)c2c1 | 6.29 | 4.56
COC(=O)C1=CNC=C(C(=O)OC)C1c1ccc(Cl)c([N+](=O)[O-])c1 | 0.62 | 0.744
CCOC(=O)c1ccc(NC(=O)N2CCN(Cc3ccccc3)CC2)cc1 | > 15 | > 15
O=C1CC(c2ccc(Cl)c(Cl)c2)C2=C(CC(c3ccc(F)cc3)CC2=O)N1 (stereo unspecified) | > 15 | 4.38
Oc1ccc(Br)cc1CN1CCN(Cc2cccc(Cl)c2)CC1 | 1.79 | 0.338
CCOc1cc(C2CC(=O)NC3=C2C(=O)CC(c2ccc(OC)cc2)C3)cc(Br)c1O (stereo unspecified) | 1.13 | 1.53
CCOc1cccc2sc(N(Cc3cccnc3)C(=O)c3ccccc3[N+](=O)[O-])nc12 | 5.31 | > 15
COc1ccc2nc(C)cc(Nc3ccc(N4CCOCC4)cc3)c2c1 | 4.69 | > 15
COc1ccc(-c2cc(=O)n(-c3ccc([N+](=O)[O-])cc3)[nH]2)cc1 | > 15 | > 15
CC(C)CCNCC(O)Cn1c2ccc(Br)cc2c2cc(Br)ccc21 (stereo unspecified) | 0.492 | 0.149
Cc1ccc(Nc2cc(C)nc(Nc3ccc(NS(=O)(=O)c4ccc(F)cc4)cc3)n2)cc1 | 0.746 | 7.04
CCCSc1nnc(Cn2c(=O)sc3ccccc32)n1C | > 15 | > 15
Oc1c(C(Nc2ccccn2)c2cccc(Cl)c2Cl)ccc2cccnc12 (stereo unspecified) | 1.77 | 2.44
C#CCOc1ccc(C2C(C#N)=C(N)Oc3c2ccc2ccccc32)cc1OC (stereo unspecified) | 0.414 | 4.08
Cc1ccc(-c2nc(C(=O)N(C)Cc3cccnc3)cs2)cc1F | 4.36 | 5.12

Compound | EC50 (Plasmodium falciparum [1]) [µM] | EC50 (Plasmodium falciparum [2]) [µM]
Cc1ccc(NC2=NC(=O)CC(C(=O)Nc3ccc(C(C)C)cc3)S2)cc1C (stereo unspecified) | > 15 | > 15
CCOC(=O)c1c(NC(=O)c2ccc(Cl)cc2Cl)sc(C)c1C | > 15 | > 15
CCOC(=O)c1c(CN(CC)CC)n(-c2ccccc2)c2cc(Br)c(O)cc12 | 1.78 | 3.45
COc1ccc(Nc2cc(C)nc(Nc3ccc(NS(=O)(=O)c4ccc(F)cc4)cc3)n2)cc1 | 1.55 | > 15
CSc1ccc(C2CC(=O)NC3=C2C(=O)CC(c2ccccc2Cl)C3)cc1 (stereo unspecified) | 2.21 | 1.17
CCOC(=O)C1=C(C)N=c2s/c(=C\c3cc(Cl)ccc3O)c(=O)n2C1c1ccc(Cl)cc1 (stereo unspecified) | > 15 | > 15
Cc1cccc(C2CC(=O)NC3=C2C(=O)CC(c2ccccc2Cl)C3)c1 (stereo unspecified) | > 15 | 4.42
N=C(N)N/N=C/c1ccncc1 | 3.49 | > 15
Cc1ccc(Nc2nc(N)c3ccccc3n2)cc1Cl | > 15 | > 15
Cc1ccccc1-c1cnc(-c2cccnc2)nc1C1CCN(C(=O)CCCc2cccs2)CC1 | 5.76 | 4.53
CCCC(=O)NC(c1ccccc1OC)c1ccc2cccnc2c1O (stereo unspecified) | 2.2 | 3.43
CCOCc1cc(CN2CCN(CCC(C)C)C(CCO)C2)ccc1OC (stereo unspecified) | > 15 | > 15
COc1ccc(Nc2cc(C)nc(Nc3ccc(NS(=O)(=O)c4cccc(C)c4)cc3)n2)cc1 | 1.99 | > 15
Cc1cccc(NC2=C(N3CCCCC3)C(=O)c3ccccc3C2=O)c1 | 0.0527 | 0.181
CCOC(=O)c1ccc(NC2=C(n3nnc4ccccc43)C(=O)c3ccccc3C2=O)cc1 | 3.23 | 0.678
Cc1ccc(N2C(=O)CS(=O)(=O)C23C(=O)N(Cc2ccccc2Cl)c2ccccc23)cc1C (stereo unspecified) | 1.33 | 2.43
CCOC(=O)C1=C(CN(C)c2ccc(F)cc2)NC(=O)NC1c1ccc(Cl)cc1 (stereo unspecified) | > 15 | 6.3
COc1ccccc1OCCCCN1CCCC1 | > 15 | > 15
CCC(=O)NC(c1ccccc1OC)c1ccc2cccnc2c1O (stereo unspecified) | 2.27 | 4.28
O=C1c2ccc3c4c(ccc(c24)C(=O)N1CCO)C(=O)N(CCO)C3=O | > 15 | 2.7
COC(=O)c1ccc(OCC2c3cc(OC)c(OC)cc3CCN2C(=O)Nc2ccccc2)cc1 (stereo unspecified) | 4.83 | 2.93
